{"source": "patent US9155759B2", "about": "“Heterochain aliphatic poly-N-oxide copolymers and vaccinating agents and drugs based thereon” (priority 2010, dated 2015)", "key": {"[1]": {"test": "Antidotal properties at acute CuSo4 poisoning", "format": "in vivo", "protocol": "The investigation was done in vivo at an acute CuSo4 poisoning. The preparations are administered to 7 groups of animals of which a normal saline solution is administered to the animals of the first group, CuSo4 alone in the doses fatal for animals (mg/kg): 12.5; 25.0; and 50.0 to the animals of groups 2÷4, and the similar CuSo4 doses in combination with the similar doses of CP—NO-3-1 are administered to the animals of groups 5÷7.\nThe results of investigations presented in table 4 testify to a pronounced antidotal effect of CP—NO."}, "erythrocytes": {"test_system": "erythrocytes", "test": "Quartz (SiO2) erythrocyte hemolysis model", "format": "cell-based, Human", "settings": "for Protection from hemolysis / Hemolysis: SiO2 3 mg; for Hemolysis: 1 hour, 37° C.", "protocol": "The investigation was done on a model of quartz (SiO2) erythrocyte hemolysis using the international standard of quartz dust DQ-12 having a dispersion degree of less than 3 μm according to the A. David method (1976). Human blood was taken with heparin, erythrocytes were thrice washed in a 10-fold volume of a water-white Henx solution followed by centrifuging at 3000 rpm for 10 min. An erythrocyte suspension was resuspended to a 4% concentration ([…]). All investigations were done in 3÷5 parallel assays. The samples of SiO2 and erythrocytes were taken under continuous agitation on a magnetic agitator.\n1 ml of a 4% erythrocyte suspension was mixed with 1 ml of the investigated preparation adding 1 ml of 0.3% (3 mg/ml) of a SiO2 suspension and incubated for 1 hour at a temperature of 37° C. carefully shaking the samples every 5 minutes. After incubation all samples were added with 7 ml of a buffer, it was centrifuged and the supernatant was photometered on SF-26 at 540 nm. The results of hemolysis were expressed in percents taking as 100% the content of hemoglobin in the samples of 1 ml of a 4% erythrocyte suspension with 9 ml of distilled water. The protective effect of the investigated preparations was calculated according to the formula and expressed in percents: […]\nE540 K SiO2 is extinction of the control samples—a “water-silicon-erythrocytes” test tube.\nA property of CP—NO to protect erythrocytes from hemolysis was compared to high molecular plasma-substituting solutions of polyvinylpyrrolidone (hemodez), dextran (polyglucin) and albumin. As a buffer, a water-white Henx solution was used."}}, "note": "Marks after values point to notes of the source that are not given here."}
{"compound": "O=S(=O)([O-])[O-].[Cu+2]", "note": "[CuSO4]", "values": [{"measurement": "% of animal death at days 1-2", "setting": "[1]; CuSO4 12.5 mg/kg alone", "value": 100, "unit": "%"}, {"measurement": "Animal survivability at day 30", "setting": "[1]; CuSO4 12.5 mg/kg alone", "value": 0, "unit": "%"}, {"measurement": "% of animal death at days 1-2", "setting": "[1]; CuSO4 25.0 mg/kg alone", "value": 100, "unit": "%"}, {"measurement": "Animal survivability at day 30", "setting": "[1]; CuSO4 25.0 mg/kg alone", "value": 0, "unit": "%"}, {"measurement": "% of animal death at days 1-2", "setting": "[1]; CuSO4 50.0 mg/kg alone", "value": 100, "unit": "%"}, {"measurement": "Animal survivability at day 30", "setting": "[1]; CuSO4 50.0 mg/kg alone", "value": 0, "unit": "%"}]}
{"compound": "Albumin", "values": [{"measurement": "protective properties against hemolysis (in words)", "setting": "erythrocytes; comparison detoxicants", "value": "a pronounced effect is achieved only in high doses"}, {"measurement": "Protection from hemolysis", "setting": "erythrocytes; dose 100 μg/ml", "value": 18.0, "unit": "%"}, {"measurement": "Hemolysis", "setting": "erythrocytes; dose 100 μg/ml", "value": 82.0, "unit": "%"}, {"measurement": "Protection from hemolysis", "setting": "erythrocytes; dose 1000 μg/ml", "value": "86.5* %"}, {"measurement": "Hemolysis", "setting": "erythrocytes; dose 1000 μg/ml", "value": "13.5* %"}]}
